The text below walks through data of patent publication EP3698777A1, “COMPOSITION FOR PREVENTING AND TREATING DEPRESSIVE AND COGNITIVE SYMPTOMS” (NEURAXPHARM ITALY S.P.A., priority 2019, dated 2020).

Data set [1] can be described thus: ORAC test (Oxygen Radical Absorbance Capacity). Particulars: single ingredients taken at their percentage composition in the combination; combination = 1000 mg fish oil + 600 mg NAC + 30 mg dry saffron extract; Figure 2. On the procedure:
The ORAC method was used to assess the antioxidant activity of the substances of the invention by measuring the ability to protect the fluorescent probe (fluorescein) from damage due to peroxyl radical generated by spontaneous decomposition of AAPH (2,2'-azobis (2-amidine-propane) dihydrochloride) at 37°C, with consequent loss of fluorescence. The protective effect of the substances of the invention, alone or in combination, was measured by evaluating the longer area of time/fluorescence intensity under the curve (AUC) of the sample compared to the blank (AUC), wherein substances are not present. Trolox was the antioxidant used as the calibration standard, the ORAC results being expressed as Trolox equivalent micromol/gram of sample (i.e. µmol TE/g). […]
The ORAC test was performed by adding 150 µL of working solution with fluorescein to all the microplate wells, followed by the addition of 25 µL of diluted buffer (white), 50 µL of diluted buffer (control), 25 µL of standard (Trolox 6.25 - 50 µM) or 25 µL of the samples prepared before filling the microplate wells. […] The plate was immediately transferred to the plate reader and the fluorescence was measured every minute for 35 minutes. Fluorescence readings refer to the highest reading of the wells in which no AAPH (controls) is added.
The net AUC of the standards and samples were calculated. […]

For data set [2], the system named is Human microglia cells HMC3. Description: Cell viability test (MTT assay). It counts as cell-based. Particulars: 24 hours incubation, saffron extract 1 or 3 µg/mL, NAC 200 or 600 µM, fish oil 8.5 or 28.5 µg/mL, Figure 1. On the procedure: Human microglia cells HMC3 (ATCC® CRL-3304™) were cultured in EMEM (Eagle's minimum essential medium) containing 10% FBS (fetal bovine serum) and PSG (1000 U/ml of Penicillin, 10000 ug/ml of Streptomycin, 29.2 mg/ml of L-Glutamine). The HMC3 cells were placed in 96-well plates with a density of 40,000 cells/well and let to adhere overnight in an incubator at 37°C, 5% CO2. The cells were then treated or not with different concentrations of the substances of the invention (saffron extract (1 µg/mL or 3 µg/mL), NAC (200 µM or 600 µM) or fish oil (8.5 µg/mL or 28.5 µg/mL) dissolved in EMEM with 10% FBS). After 24 hours incubation, cell viability was determined by MTT assay. Then, 10 µL of MTT (5 mg/mL solution) were added to the cells and incubated for 1 hour, followed by removal of the medium and dissolution of the crystals formed in 100 µL of isopropanol. Absorbance at 570 nm was measured with a spectrophotometer (SEAC SIRIO S) and the cell viability was expressed as a percentage of untreated control cells.
On the technique in general: Tetrazolium dyes change colour on reduction, which living cells bring about.

In the case of `CC(=O)N[C@@H](CS)C(=O)O` [NAC, N-acetylcysteine], in data set [1], the “antioxidant activity (ORAC)” value is given as 24.04 TE µmol/g. Moreover, the cell viability entry in data set [2] is given as “do not influence the cell viability”.
